This is an account of results in patent US20260347337A1, “MICROBIOCIDAL PYRAZOLE DERIVATIVES” (priority 2022, published 2026).

For orientation: inhibition of growth means the change of the read-out against control, counted positive when it falls.

Test [1] concerns Fusarium culmorum. In words: microbe, parasite or virus in culture. Type of test: cell-based. The following applies: read-out: control of Fusarium culmorum (inhibition of growth vs untreated).
For another test, the system named is Plasmopara viticola. Type of test: in vivo. The following applies: 200 ppm; grape vine leaf disks; preventative, inoculated 1 day after application; assessed 6-8 days after application.
Another test has as its system Alternaria solani. In words: Alternaria solani/tomato/leaf disc (early blight). The following applies: 200 ppm; tomato leaf disks cv. Baby; inoculated 2 days after application; assessed 5-7 days after application. Type of test: in vivo. The method, then:
Example B1: Alternaria solani/Tomato/Leaf Disc (Early Blight)
Tomato leaf disks cv. Baby are placed on agar in multiwell plates (24-well format) and sprayed with the formulated test compound diluted in water. The leaf disks are inoculated with a spore suspension of the fungus 2 days after application. The inoculated leaf disks are incubated at 23° C./21° C. (day/night) and 80% rh under a light regime of 12/12 h (light/dark) in a climate cabinet and the activity of a compound is assessed as percent disease control compared to untreated when an appropriate level of disease damage appears on untreated check disk leaf disks (5-7 days after application).

Test [2] relates to Botryotinia fuckeliana (Botrytis cinerea). In words: Botryotinia fuckeliana (Botrytis cinerea)/liquid culture (gray mould), inhibition of growth. The note with it: liquid culture, Vogels broth, 24° C., 3-4 days after application, read-out: control of Botryotinia fuckeliana (inhibition of growth vs untreated). Format: cell-based. The method, then:
Example B2: Botryotinia fuckeliana (Botrytis cinerea)/Liquid Culture (Gray Mould)
Conidia of the fungus from cryogenic storage are directly mixed into nutrient broth (Vogels broth). After placing a (DMSO) solution of test compound into a microtiter plate (96-well format), the nutrient broth containing the fungal spores is added. The test plates are incubated at 24° C. and the inhibition of growth is determined photometrically 3-4 days after application.

In test [3] the test system is Phaeosphaeria nodorum (Septoria nodorum). In words: Phaeosphaeria nodorum (Septoria nodorum)/wheat/leaf disc preventative (glume blotch). Format: in vivo. The following applies: 200 ppm, wheat leaf segments cv. Kanzler, inoculated 2 days after application, assessed 5-7 days after application. The method, then: Example B7: Phaeosphaeria nodorum (Septoria nodorum)/Wheat/Leaf Disc Preventative (Glume Blotch)
Wheat leaf segments cv. Kanzler are placed on agar in a multiwell plate (24-well format) and sprayed with the formulated test compound diluted in water. The leaf disks are inoculated with a spore suspension of the fungus 2 days after application. The inoculated test leaf disks are incubated at 20° C. and 75% rh under a light regime of 12 h light/12 h darkness in a climate cabinet and the activity of a compound is assessed as percent disease control compared to untreated when an appropriate level of disease damage appears in untreated check leaf disks (5-7 days after application).

The test system of test [4] is Blumeria graminis f. sp. tritici (Erysiphe graminis f. sp. tritici). In words: Blumeria graminis f. sp. tritici/wheat/leaf disc preventative (powdery mildew on wheat). Format: in vivo. The note with it: 200 ppm, wheat leaf segments cv. Kanzler, inoculated 1 day after application, assessed 6-8 days after application. The method, then:
Example B4: Blumeria graminis f. Sp. Tritici (Erysiphe graminis f. Sp. Tritici)/Wheat/Leaf Disc Preventative (Powdery Mildew on Wheat)
Wheat leaf segments cv. Kanzler are placed on agar in a multiwell plate (24-well format) and sprayed with the formulated test compound diluted in water. The leaf disks are inoculated by shaking powdery mildew infected plants above the test plates 1 day after application. The inoculated leaf disks are incubated at 20° C. and 60% rh under a light regime of 24 h darkness followed by 12 h light/12 h darkness in a climate chamber and the activity of a compound is assessed as percent disease control compared to untreated when an appropriate level of disease damage appears on untreated check leaf segments (6-8 days after application).

In test [5] the test system is Mycosphaerella arachidis (Cercospora arachidicola). In words: Mycosphaerella arachidis (Cercospora arachidicola)/liquid culture (early leaf spot), inhibition of growth. Format: cell-based. The following applies: liquid culture, PDB, 24° C., 4-5 days after application, read-out: control of Mycosphaerella arachidis (inhibition of growth vs untreated). The procedure:
Example B9: Mycosphaerella arachidis (Cercospora arachidicola)/Liquid Culture (Early Leaf Spot)
(§1) Conidia of the fungus from cryogenic storage are directly mixed into nutrient broth (PDB potato dextrose broth). After placing a (DMSO) solution of test compound into a microtiter plate (96-well format), the nutrient broth containing the fungal spores is added. The test plates are incubated at 24° C. and the inhibition of growth is determined photometrically 4-5 days after application.

The subject of test [6] is Monographella nivalis (Microdochium nivale). In words: Monographella nivalis (Microdochium nivale)/liquid culture (foot rot cereals), inhibition of growth. The note with it: liquid culture, PDB, 24° C., 4-5 days after application, read-out: control of Monographella nivalis (inhibition of growth vs untreated). Format: cell-based. The procedure: Example B8: Monographella nivalis (Microdochium nivale)/Liquid Culture (Foot Rot Cereals)
as §1

The subject of test [7] is Mycosphaerella graminicola (Septoria tritici). In words: Mycosphaerella graminicola (Septoria tritici)/liquid culture (Septoria blotch), inhibition of growth. Type of test: cell-based. The note with it: Zymoseptoria tritici, liquid culture, PDB, 24° C., 4-5 days after application, read-out: control of Mycosphaerella graminicola (inhibition of growth vs untreated). The procedure: Example B12: Mycosphaerella graminicola (Septoria tritici)/Liquid Culture (Septoria Blotch)
as §1

Test [8] deals with Glomerella lagenarium (Colletotrichum lagenarium). In words: Glomerella lagenarium (Colletotrichum lagenarium)/liquid culture (anthracnose), inhibition of growth. Format: cell-based. The following applies: Colletotrichum orbiculare, liquid culture, PDB, 24° C., 3-4 days after application, read-out: control of Glomerella lagenarium (inhibition of growth vs untreated). The method, then:
Example B3: Glomerella lagenarium (Colletotrichum lagenarium)/Liquid Culture (Anthracnose)
Conidia of the fungus from cryogenic storage are directly mixed into nutrient broth (PDB potato dextrose broth). After placing a (DMSO) solution of test compound into a microtiter plate (96-well format), the nutrient broth containing the fungal spores is added. The test plates are incubated at 24° C. and the inhibition of growth is measured photometrically 3-4 days after application.

Another test relates to Pyrenophora teres. In words: Pyrenophora teres/barley/leaf disc preventative (net blotch). Format: in vivo. The following applies: 200 ppm, barley leaf segments cv. Hasso, inoculated 2 days after application, assessed 5-7 days after application. The procedure: Example B10: Pyrenophora teres/Barley/Leaf Disc Preventative (Net Blotch)
Barley leaf segments cv. Hasso are placed on agar in a multiwell plate (24-well format) and sprayed with the formulated test compound diluted in water. The leaf segments are inoculated with a spore suspension of the fungus 2 days after application. The inoculated leaf segments are incubated at 20° C. and 65% rh under a light regime of 12 h light/12 h darkness in a climate cabinet and the activity of a compound is assessed as disease control compared to untreated when an appropriate level of disease damage appears in untreated check leaf segments (5-7 days after application).

The test system of the next test is Sclerotinia sclerotiorum. In words: Sclerotinia sclerotiorum/liquid culture (cottony rot), inhibition of growth. The note with it: liquid culture (mycelia fragments), PDB, 24° C., 3-4 days after application, read-out: control of Sclerotinia sclerotiorum (inhibition of growth vs untreated). Type of test: cell-based. The method, then: Example B11: Sclerotinia sclerotiorum/Liquid Culture (Cottony Rot)
Mycelia fragments of a newly grown liquid culture of the fungus are directly mixed into nutrient broth (PDB potato dextrose broth). After placing a (DMSO) solution of test compound into a microtiter plate (96-well format) the nutrient broth containing the fungal material is added. The test plates are incubated at 24° C. and the inhibition of growth is determined photometrically 3-4 days after application.

In test [9] the test system is Fusarium culmorum. Type of test: in vivo. The following applies: 200 ppm; wheat spikelets cv. Monsun; preventative, inoculated 1 day after application; assessed 6-8 days after application.

In the case of `Cn1cc(C(C)(CNC(=O)c2cn(-c3ccc(F)cc3F)nn2)c2cccc(Cl)n2)cn1` (centres unmarked) [Compound P-1, N-[2-(6-chloro-2-pyridyl)-2-(1-methylpyrazol-4-yl)propyl]-1-(2,4-difluorophenyl)triazole-4-carboxamide], the inhibition of growth at 20 ppm (in the test on Fusarium culmorum [1]; in [2]; in [5]; in [6]; in [7]; in test [8]) was ≥ 80% in each case. Moreover, the “control of Plasmopara viticola (percent disease control compared to untreated)” value with Plasmopara viticola is “at least 80%”. Also, the “control of Alternaria solani (percent disease control compared to untreated)” value in the test with Alternaria solani is “at least 80%”. Moreover, the “control of Phaeosphaeria nodorum (percent disease control compared to untreated)” value in test [3] was “at least 80%”. Besides, the “control of Blumeria graminis f. sp. tritici (percent disease control compared to untreated)” value in [4] is given as “at least 80%”. The “control of Pyrenophora teres (disease control compared to untreated)” value in the test with Pyrenophora teres is “at least 80%”.

As for `Cn1cc(C(C)(CNC(=O)c2cnn(-c3ccc(F)cc3F)n2)c2cccc(Cl)n2)cn1` (centres unmarked) [Compound P-3, N-[2-(6-chloro-2-pyridyl)-2-(1-methylpyrazol-4-yl)propyl]-2-(2,4-difluorophenyl)triazole-4-carboxamide], the “control of Alternaria solani (percent disease control compared to untreated)” value with Alternaria solani is listed as “at least 80%”. For the same compound, the “control of Pyrenophora teres (disease control compared to untreated)” value in the test on Pyrenophora teres is given as “at least 80%”.

`Cn1cc(C(C)(CNC(=O)c2nnn(-c3ccc(F)cc3F)n2)c2cccc(C#N)n2)cn1` (centres unmarked) [Compound P-5, N-[2-(6-cyano-2-pyridyl)-2-(1-methylpyrazol-4-yl)propyl]-2-(2,4-difluorophenyl)tetrazole-5-carboxamide]: the “control of Alternaria solani (percent disease control compared to untreated)” value with Alternaria solani was “at least 80%”. In addition, the inhibition of growth at 20 ppm (in test [2]; in the test on Sclerotinia sclerotiorum; in test [5]; in [6]; in test [7]; in test [8]) was ≥ 80% throughout. The “control of Phaeosphaeria nodorum (percent disease control compared to untreated)” value in test [3] was “at least 80%”. For the same compound, in [4], the “control of Blumeria graminis f. sp. tritici (percent disease control compared to untreated)” value is on record as “at least 80%”. Also, the “control of Pyrenophora teres (disease control compared to untreated)” value with Pyrenophora teres is recorded as “at least 80%”.

As to `Cn1cc(C(C)(CNC(=O)c2nnn(-c3ccc(F)cc3F)n2)c2cccc(Cl)n2)cn1` (centres unmarked) [Compound P-6, N-[2-(6-chloro-2-pyridyl)-2-(1-methylpyrazol-4-yl)propyl]-2-(2,4-difluorophenyl)tetrazole-5-carboxamide], the inhibition of growth at 20 ppm (in the test on Fusarium culmorum [1]; in test [2]; in the test on Sclerotinia sclerotiorum; in test [5]; in [6]; in test [7]) was ≥ 80% in each case. Moreover, in [8], the inhibition of growth at 20 ppm was ≥ 80%. Moreover, in the test on Alternaria solani, the “control of Alternaria solani (percent disease control compared to untreated)” value is “at least 80%”. Also, the “control of Phaeosphaeria nodorum (percent disease control compared to untreated)” value in test [3] is “at least 80%”. Besides, the “control of Blumeria graminis f. sp. tritici (percent disease control compared to untreated)” value in [4] was “at least 80%”. Moreover, the “control of Pyrenophora teres (disease control compared to untreated)” value in the test with Pyrenophora teres is reported as “at least 80%”. Moreover, the “control of Fusarium culmorum (percent disease control compared to untreated)” value in the test on Fusarium culmorum [9] was “at least 80%”.

As to `Cn1cc(C(C)(CNC(=O)c2cn(-c3ccc(F)cc3F)nn2)c2cccc(Br)n2)cn1` (centres unmarked) [Compound P-8, N-[2-(6-bromo-2-pyridyl)-2-(1-methylpyrazol-4-yl)propyl]-1-(2,4-difluorophenyl)triazole-4-carboxamide], the inhibition of growth at 20 ppm (with Fusarium culmorum [1]; in [2]; in test [5]; in [6]; in test [7]; in test [8]) was ≥ 80% throughout. The “control of Alternaria solani (percent disease control compared to untreated)” value in the test with Alternaria solani was “at least 80%”. The “control of Phaeosphaeria nodorum (percent disease control compared to untreated)” value in test [3] is “at least 80%”. Besides, in test [4], the “control of Blumeria graminis f. sp. tritici (percent disease control compared to untreated)” value is “at least 80%”. In addition, the “control of Pyrenophora teres (disease control compared to untreated)” value in the test on Pyrenophora teres is listed as “at least 80%”.

Take `Cn1cc(C(C)(CNC(=O)c2cn(-c3ccc(F)cc3F)nn2)c2cccc(C#N)n2)cn1` (centres unmarked) [Compound P-9, N-[2-(6-cyano-2-pyridyl)-2-(1-methylpyrazol-4-yl)propyl]-1-(2,4-difluorophenyl)triazole-4-carboxamide]: in test [3], the “control of Phaeosphaeria nodorum (percent disease control compared to untreated)” value is “at least 80%”. For the same compound, the “control of Blumeria graminis f. sp. tritici (percent disease control compared to untreated)” value in [4] was “at least 80%”. In addition, the inhibition of growth at 20 ppm in test [6] and in test [7] was ≥ 80% in each case. In addition, the “control of Pyrenophora teres (disease control compared to untreated)” value with Pyrenophora teres is recorded as “at least 80%”.
